Test: Human HepG2 cell viability assay in 384 well format
Format: toxicity, cell-based
Design: dose 125 nL, time 70.5 hour; concentration not given beside the values
Conditions: HepG2 cells, read-out: Inhibition

Structure (SMILES): COc1c(NS(=O)(=O)c2ccc(C)c(C)c2)c(C)nn1C
- cytotoxicity at 70.5 h: 2.79%

Structure (SMILES): COCC(=O)N[C@H](C(=O)NC(C)c1cc(C)ccc1C)C(C)C (some centres undefined)
- cytotoxicity at 70.5 h: -0.855%

Structure (SMILES): CCn1nc2c(cc1=O)CN(c1nc3ccccc3s1)CC2
- cytotoxicity at 70.5 h: 16.9%

Structure (SMILES): O=C(CN1CCCNC1=O)N(Cc1ccccc1)CC(F)F
- cytotoxicity at 70.5 h: 1.59%

Structure (SMILES): COCC(=O)N[C@H](C(=O)NC(C)c1cccc(C)c1C)C(C)C (some centres undefined)
- cytotoxicity at 70.5 h: 0.118%

Structure (SMILES): Cc1nc(-c2ccc(CC(=O)N3CCNC(=O)C3)cc2)cs1
- cytotoxicity at 70.5 h: 9.75%

Structure (SMILES): CC(C)c1nc(NC(=O)CCCn2cccc2)n(C)n1
- cytotoxicity at 70.5 h: 3.43%

Structure (SMILES): CC1CN(C(=O)C2(c3ccc(F)cc3F)CCOCC2)CCO1 (centres undefined)
- cytotoxicity at 70.5 h: -2.6%

Structure (SMILES): CCN(CC)Cc1ccccc1NCc1c(C)noc1C
- cytotoxicity at 70.5 h: -0.774%

Structure (SMILES): COc1ccc(CNCc2c(C)nc3sc(C)cn23)c(OC)c1OC
- cytotoxicity at 70.5 h: 11.7%

Structure (SMILES): Cn1cc(C(=O)N2CCCC2c2ccc3c(c2)OCO3)ccc1=O (centres undefined)
- cytotoxicity at 70.5 h: -1.44%

Structure (SMILES): Cc1csc(C2(NCCC(=O)N3CCOCC3)CCCC2)n1
- cytotoxicity at 70.5 h: 4.83%

Structure (SMILES): COc1ccnc(N2CCN(Cc3ncc(C(C)(C)C)o3)CC2)n1
- cytotoxicity at 70.5 h: 6.11%

Structure (SMILES): CC(C)(C)OC(=O)N1CCC(C(=O)NC2CCS(=O)(=O)C2)CC1 (centres undefined)
- cytotoxicity at 70.5 h: -6.28%

Structure (SMILES): CCc1ccc(CNC(=O)Nc2cc(C)on2)s1
- cytotoxicity at 70.5 h: -9.95%

Structure (SMILES): CCOc1ccc(C(=O)NCc2ccnc(N3CCCC3)c2)cn1
- cytotoxicity at 70.5 h: -6.13%

Structure (SMILES): CCn1cnnc1CNC(=O)N(C)Cc1c(F)cccc1Cl
- cytotoxicity at 70.5 h: -8.68%

Structure (SMILES): CNS(=O)(=O)c1ccc(CNC(=O)Nc2cc(C)on2)s1
- cytotoxicity at 70.5 h: -6.5%

Structure (SMILES): Cc1ccc(C(=O)NCc2ccnc(N3CCN(C)CC3)c2)cn1
- cytotoxicity at 70.5 h: -10%

Structure (SMILES): CN(C)C(=O)N1CCC(C(=O)NCCNc2ncccc2C#N)CC1
- cytotoxicity at 70.5 h: -4.63%

Structure (SMILES): CC(C)(C)c1cnc(CN2CCN(c3ncccn3)CC2)o1
- cytotoxicity at 70.5 h: 6.21%

Structure (SMILES): CCN1CCN(C2CCN(C(C(N)=O)c3ccc(F)cc3)CC2)C1=O (centres undefined)
- cytotoxicity at 70.5 h: 5.11%

Structure (SMILES): CCCN(CC1CC1)C(=O)Nc1ccc(N2CCSCC2)cc1C
- cytotoxicity at 70.5 h: -8.14%

Structure (SMILES): CCC(C)N(C)C(=O)Nc1ccc(N2CCSCC2)cc1C (centres undefined)
- cytotoxicity at 70.5 h: -5.01%

Structure (SMILES): O=C(NCCCC(=O)N1Cc2ccccc2C1)NCc1ccsc1
- cytotoxicity at 70.5 h: 5.3%

Structure (SMILES): CN1CCN(C2CCN(C(C(N)=O)c3ccccc3)CC2)C1=O (centres undefined)
- cytotoxicity at 70.5 h: -5.22%

Structure (SMILES): Cc1csc(C2(NC(=O)NCCN3CCOCC3)CCC2)n1
- cytotoxicity at 70.5 h: -8.41%

Structure (SMILES): CC(CNC(=O)c1ccc(F)cc1I)N1CCCC1 (centres undefined)
- cytotoxicity at 70.5 h: 22%

Structure (SMILES): NC(=O)COc1cccc(C(=O)NCc2ccc(Cl)s2)c1
- cytotoxicity at 70.5 h: -11.8%

Structure (SMILES): CN(Cc1ccc(Cl)s1)C(=O)COc1cccc(C(N)=O)c1
- cytotoxicity at 70.5 h: -26.8%

Structure (SMILES): CNC(=O)CCS(=O)(=O)Cc1coc(-c2ccc(F)cc2)n1
- cytotoxicity at 70.5 h: -20.2%

Structure (SMILES): CC(C)c1noc(CN2CCC(c3nc4cc(Cl)ccc4o3)CC2)n1
- cytotoxicity at 70.5 h: -19.1%

Structure (SMILES): Cc1cc(CN2CCN(C(=O)Cc3ccccc3F)CC2)on1
- cytotoxicity at 70.5 h: -14%

Structure (SMILES): Cc1nc(CN2CCC(c3nc4cc(Cl)ccc4o3)CC2)oc1C
- cytotoxicity at 70.5 h: -19.4%

Structure (SMILES): CN(CC(=O)N1CCN(c2ccccn2)CC1)c1ccc(Cl)cn1
- cytotoxicity at 70.5 h: -17.2%

Structure (SMILES): NS(=O)(=O)CCCNC(=O)C1(c2cccc(Cl)c2)CC1
- cytotoxicity at 70.5 h: -22.9%

Structure (SMILES): COc1ccc(C(=O)NS(=O)(=O)c2cncc(Br)c2)c(OC)c1
- cytotoxicity at 70.5 h: -7.26%

Structure (SMILES): O=C(CCNC(=O)N1CCC(c2ccccc2)C1)N1CCCCC1 (centres undefined)
- cytotoxicity at 70.5 h: -13%

Structure (SMILES): CC(CNC(=O)c1ccc(Cl)cc1F)N1CCN(C)CC1 (centres undefined)
- cytotoxicity at 70.5 h: 13.3%

Structure (SMILES): COc1ccccc1C(=O)NS(=O)(=O)c1cncc(Br)c1
- cytotoxicity at 70.5 h: 9.9%

Structure (SMILES): Cn1cc(Br)c(=O)c(NS(=O)(=O)c2ccccc2F)c1
- cytotoxicity at 70.5 h: -9.33%

Structure (SMILES): CS(=O)(=O)NCCC1CCCCN1C(=O)NCCc1ccccn1 (centres undefined)
- cytotoxicity at 70.5 h: -14.3%

Structure (SMILES): Cc1cc(CN2CCN(C(=O)CCc3cccs3)CC2)on1
- cytotoxicity at 70.5 h: -18.8%

Structure (SMILES): O=C1NCC2CN(Cc3ccccc3OCc3ccccn3)CCN12 (centres undefined)
- cytotoxicity at 70.5 h: -13.1%

Structure (SMILES): CCC(CC)N(C)S(=O)(=O)c1ccc(CCNC(C)=O)s1
- cytotoxicity at 70.5 h: 1.4%

Structure (SMILES): O=C(CSc1ccc2c(c1)OCCO2)NS(=O)(=O)c1cccs1
- cytotoxicity at 70.5 h: -6.92%

Structure (SMILES): CC(NC(=O)N(C)Cc1ccsc1)c1nncn1C (centres undefined)
- cytotoxicity at 70.5 h: -2.73%

Structure (SMILES): O=C(NCC(c1cccs1)N1CCOCC1)c1ccc(F)cc1Cl (centres undefined)
- cytotoxicity at 70.5 h: -5.9%

Structure (SMILES): COc1ccc(-c2nnc(CN3CCNC(=O)C3)o2)cc1
- cytotoxicity at 70.5 h: -2.61%

Structure (SMILES): CC(Oc1ccc(S(C)(=O)=O)cc1)C(=O)NC(N)=O (centres undefined)
- cytotoxicity at 70.5 h: -7.21%

Structure (SMILES): Cc1ccc(-c2nnc(CN3CCNC(=O)C3)o2)cc1
- cytotoxicity at 70.5 h: -4.25%

Structure (SMILES): Cc1cc(NC(=O)NCCc2ccc(S(N)(=O)=O)cc2)n(C)n1
- cytotoxicity at 70.5 h: -6.71%

Structure (SMILES): Cc1cc(NC(=O)NCCc2cccnc2)n(C)n1
- cytotoxicity at 70.5 h: -3.88%

Structure (SMILES): CC(Cn1cccn1)NC(=O)Nc1cccnc1 (centres undefined)
- cytotoxicity at 70.5 h: -8.71%

Structure (SMILES): COc1ccc(NC(=O)NC(C)Cn2cccn2)cn1 (centres undefined)
- cytotoxicity at 70.5 h: -11.6%

Structure (SMILES): CC(NC(=O)N(C)Cc1ccc2c(c1)OCO2)c1nncn1C (centres undefined)
- cytotoxicity at 70.5 h: -8.56%

Structure (SMILES): NC(=O)CN1CCCN(C(=O)c2ccn(-c3ccc(F)cc3)n2)CC1
- cytotoxicity at 70.5 h: 6.29%

Structure (SMILES): CNC(=O)CN(C)Cc1ccc(F)cc1Cl
- cytotoxicity at 70.5 h: -6.72%

Structure (SMILES): Cn1ccnc1-c1cccc(NC(=O)NCCCN2CCOCC2)c1
- cytotoxicity at 70.5 h: -2.94%

Source: ChEMBL document CHEMBL3507680, “University of Dundee, Gates Library screen for HepG2 cell viability”
